Laboratory results taken from US10456387B2, “Phacetoperane for treating of attention deficit hyperactivity disorder” (NLS PHARMA AG, priority 2011, dated 2019).

Columns and labels:
young Wistar rats [1] = conditions: background description of the model; cited from earlier work
young Wistar rats [2] = experiment: T-maze test, a model of ADHD (ability to wait / impulsiveness); type: in vivo, rat; conditions: for Effect on ability to wait relative to the control: administered IP before the test, BLK-010 1 mg/kg; for Effect on ability to wait relative to the control / Mean, Medication (choices of the large reward deferred by 30 s) / Mean, Cont-Post (choices of the large reward deferred by 30 s): methylphenidate 3 mg/kg; for Mean, Medication (choices of the large reward deferred by 30 s): medication sessions, IP 30 min before test; for Mean, Cont-Post (choices of the large reward deferred by 30 s): post-medication control sessions, one day after medication session 2, phacetoperane 1 mg/kg IP; for Mean, Cont-Pre (choices of the large reward deferred by 30 s): pre-medication control sessions, before any drug, male juvenile Wistar rats, n = 6, sessions of 5 tests; for Efficacy compared with methylphenidate in the ability to wait: BLK-010 1 mg/kg IP vs methylphenidate 3 mg/kg IP

| SMILES | Effect on number of times the large but deferred reward is chosen (young Wistar rats [1]) | Effect on ability to wait relative to the control (young Wistar rats [2]) | Mean, Medication (choices of the large reward deferred by 30 s) (young Wistar rats [2]; phacetoperane 1 mg/kg, n = 6) | Mean, Cont-Post (choices of the large reward deferred by 30 s) (young Wistar rats [2]; n = 6) | Mean, Cont-Pre (choices of the large reward deferred by 30 s) (young Wistar rats [2]) | Efficacy compared with methylphenidate in the ability to wait (young Wistar rats [2]) | Efficacy compared with methylphenidate in the ability to wait (young Wistar rats [2]; listed as BLK-010) | Improvement of impulsiveness, animals responding (young Wistar rats [2]; BLK-010 1 mg/kg IP, n = 6) | Habituation (before and after treatment) (young Wistar rats [2]; phacetoperane 1 mg/kg) |
| --- | --- | --- | --- | --- | --- | --- | --- | --- | --- |
| COC(=O)C(c1ccccc1)C1CCCCN1 (stereo not shown) [Methylphenidate, methylphenidate] | seems to increase the number of times the large but deferred reward is chosen | improve the ability to wait | 3.67 | 0.83 | 1.17 |  |  |  |  |
| CC(=O)OC(c1ccccc1)C1CCCCN1 (racemic) [Phacetoperane, threo diastereoisomer of alpha-phenyl-2-piperidinemethanol acetate] |  | improve the ability to wait | 4.17 | 0.33 | 1.17 | always found to be more effective than methylphenidate | significantly and statistically more effective than methylphenidate | found in all the animals | does not lead to any habituation |
